Results published in patent publication EP0114750A2, “Beta-lactam antibacterial agents” (BEECHAM GROUP PLC, priority 1983, dated 1984).
Structures can show the parent of a compound that is named as a salt. Where two headings read alike, the source gives them in different places.

Test system: P. mirabilis 889
Experiment: MIC, antibacterial activity
Type: cell-based
Conditions: Proteus mirabilis

MIC (strain P. mirabilis 889, read-out: MIC against P. mirabilis 889) [µg/mL]	SMILES	MIC (889, strain number not given, read-out: MIC against P.mirabilis) [µg/mL]
0.12	CCN1CCN(C(=O)N[C@@H](C(=O)N[C@]2(NC=O)C(=O)N3C(C(=O)O)=C(CSc4nnnn4CC(N)=O)CS[C@@H]32)c2ccccc2)C(=O)C1=O [Example 13, 3-[1-carbamoylmethyl-1H-tetrazol-5-yl)thiomethyl]-7β-[2-[(4-ethyl-2,3-dioxopiperazin-1-yl)-carbonylamino]-2-phenyl-acetamido]-7a-formamidoceph-3-em-4-carboxylic acid, sodium salt]	
	CCN1CCN(C(=O)N[C@@H](C(=O)N[C@]2(NC=O)C(=O)N3C(C(=O)O)=C(CSc4nnnn4CC(N)=O)CS[C@@H]32)c2ccc(OC(C)=O)c(OC(C)=O)c2)C(=O)C1=O [Example 14, Sodium 3-[(1-carbamoylmethyl-1H-tetrazol-5-yl)thiomethyl]-7β-[D-2-(3,4-diacetoxyphenyl)-2-[(4-ethyl-2,3-dioxopiperazin-1-yl)carbonylamino]acetamido)-7α-formamidoceph-3-em-4-carboxylate]	0.12
